Measurements: patent US9463188B2, “Osteopontin production inhibitor containing dictyopyrone derivative or dihydrodictyopyrone derivative as active ingredient” (TOHOKU UNIVERSITY, priority 2013, dated 2016)

What was measured:
[1] = tested on: human OPN promoter (pOPN1-luc) in A549/OPNluc cells; assay: Luciferase assay: luciferase expression under control of OPN promoter; type: cell-based
Text: A reporter vector pOPN1-luc obtained by inserting a human OPN promoter sequence (−765 to 23) into the multiple cloning site of pGL-3 basic vector (Promega) expresses luciferase when transfected into animal cells. This pOPN1-luc was transfected into a human non-small cell lung cancer-derived cell line A549 together with pPUR (Clontech) that expresses a puromycin resistance gene (puromycin-N-acetyl-transferase gene), and cells that could grow in a puromycin-supplemented medium and expressed luciferase were selected. The selected cells were named A549/OPNluc cells and used for observation of luciferase expression inhibitory effect under control of OPN promoter, as described later.
A test compound was added to a culture liquid containing A549/OPNluc cells to observe its influence on the amount of luciferase expressed in the cells. Here, it can be considered that when the test compound has cytotoxity or cell growth-suppressing effect, the total expression level of luciferase is reduced due to a reduction in the number of living cells that depends on the concentration of the test compound, and therefore the luciferase expression inhibitory effect of the test compound under control of OPN promoter cannot be properly evaluated. For this reason, WST assay for quantification of cell proliferation ability or cell viability by colorimetric measurement was first performed to determine IC50 (concentration for 50% inhibition of cell growth) of the test compound for cell growth. Then, luciferase activity measurement was performed to determine EC50 (concentration for 50% inhibition of luciferase expression) of the test compound for luciferase expression under control of OPN promoter.
The same steps as in the above-described WST assay were performed in which only DMSO (control) or the diluted test compound (sample) solution was added in an amount of 0.5 μL to each well containing the cell suspension to achieve 200-fold dilution, and the solution in each well was mixed with a vortex mixer, and the 96-well plate was incubated in a CO2 incubator (at 37° C. and 5% CO2) for 48±4 hours.
A luciferase reagent was prepared by dissolving Luciferase Assay Substrate (hereinafter, referred to as “LAS”) supplied in Luciferase Assay Systems (Promega: Cat# E1500) with Luciferase Assay Buffer (LAB). 5× Cell Culture Lysis Reagent (hereinafter, referred to as “CCLR”) was diluted with water 5-fold to prepare 1×CCLR.
After the incubation for 48±4 hours, the medium in each well was completely removed, and 50 μL of 1×CCLR was dispensed into each well. The 96-well plate was allowed to stand at room temperature for 30 minutes, and then 1×CCLR in each well was used as an assay sample. The luciferase reagent of 100 μL was placed in a tube for chemiluminescence measurement, and 20 μL of the assay sample was added to the tube and mixed with the luciferase reagent to measure chemiluminescence (Relative Luminescence Intensity: RLU) using Tuner Design Luminometer 20/20 (Promega).
The RLU values of the control wells and the RLU values of the sample wells at each concentration were input into an Excel file, and the percentages of RLU values of the sample wells at each concentration with respect to the average of RLU values of the control wells were determined. From these values, a fitted curve was determined by the method of least squares to calculate EC50.

[2] = tested on: human non-small cell lung cancer-derived cell line A549; assay: Wound-Healing assay; type: cell-based; details: A549 cells, 2 days after injury
Text: In the next stage, a determination was made as to whether or not the physiological function of cells induced by OPN production was suppressed by the compound 3 as a test compound. The determination was made by performing cell Wound-Healing assay. This assay is commonly known as a method for evaluating cell migration capacity. When a wound is made in a cell monolayer by scratching some cells with a pipette tip or the like, the wound is closed by migration of cells around the wound. The influence of a test compound on such function was observed by adding the test compound to a cell culture liquid. […]
Based on the taken images, the areas of the wounds were determined using Image-Pro Plus 7.0J (MediaCybernetics). Then, a wound healing rate (%) was calculated based on the following calculation formula: Wound healing rate (%)=100−[area of wound after 2 days from injury/area of wound just after injury]×100. The average wound-healing rates (%) of the control group and the two compound 3-treated groups at different concentrations were calculated. Further, the percentage of the wound-healing rate of the compound-treated group with respect to the wound-healing rate of the control group was also calculated.
The statistical processing of calculated values of the wound-healing rate was performed using Excel statistics, Statcel 3. […]

CCCCCCCCCCCC(=O)[C@H]1C(=O)O[C@@H](C)C[C@@H]1C [Chemical formula 3]
EC50 value relative to respective IC50 value ([1]; EC50 luciferase assay vs IC50 WST assay): ½ | EC50 ([1]; Homo sapiens, 48±4 hours, read-out: EC50 (concentration for 50% inhibition of luciferase expression under control of OPN promoter)): 15.9 µM | wound-healing rate vs control group ([2]; 12.5 μmol/L): no difference | wound-healing rate vs control group ([2]; 25 μmol/L, significance level less than 1%): significantly suppressed
